Measured values published in patent publication US8247572B2, “Facilitated transport of bisphosphonates by vitamin C” (Duke University, priority 2005, dated 2012).
Each block holds one molecule with its values, some of them ahead of it.

What was measured:
[1] = tested on: primary human chondrocytes; experiment: BP / BP-AA uptake assay in chondrocyte monolayer (HPLC); assay type: cell-based
Procedure: Uptake Assay Methods. Primary human chondrocytes were seeded at a density of 4.5×10^5 cells for 48 hours. The cells were washed with ascorbic acid transport buffer. The free bisphosphonate (BP) and the bisphosphonate conjugated to ascorbic acid (BP-AA) were solubilized in ascorbic acid transport buffer at 10 mM concentration. The cells were incubated with either the free BP or the BP-AA for an hour at 37° C./5% CO2. The cells were washed 4× with ice-cold PBS to remove any extracellular BP or BP-AA. The cells were then lysed in 250 μl ddH2O for 15 minutes on ice, sonicated for 5 minutes, and then scraped from the culture dish. The lysate was then analyzed by ion pair reverse phase HPLC with UV and electrochemical detection (ECD) as described below.
HPLC Methods. Ascorbic acid, free and conjugated, and risedronate analogs were determined by a modification of an ion pair reverse phase high-performance liquid chromatography method initially described by Vallano et al. (Vallano, P. T., Shugarts, S. B., Kline, W. F., Woolf, E. J., and Matuszewski, B. K., Determination of Risedronate in Human Urine by Column-Switching Ion-Pair High-Performance Liquid Chromatography with Ultraviolet Detection. J Chromatogr B Analyt Technol Biomed Life Sci, 2003, 794:23-33). The column consisted of a C18 packing, the mobile phase contained 8% acetonitrile and 92% of 0.005M Q8 (1-octyltriethylammonium phosphate [Regis Technologies, Morton Grove, Ill.]) and 1 mM etidronate (1-hydroxyethylidene-1,1-diphosphonic acid [Strem Chemicals, Newburyport, Mass.]) in a sodium phosphate buffer, pH 6.2, and was pumped at […]. The injection volume was 100 μl and detection was at 262 nm (UV) and 0.7V (ECD).

[2] = tested on: primary human chondrocytes; experiment: Ascorbic acid transport assay in isolated primary human chondrocytes; assay type: cell-based; conditions: for ability to compete with L-14C-Asc for transport: 2 mM unlabeled competitor; for suppression of L-14C-Asc transport by unlabeled competitor: 2 mM competitor, versus no competitor
Procedure: Ascorbic Acid Transport Assay in Isolated Primary Human Chondrocytes. AA transport was measured using a modified version of the uptake assay published by Wilson and Dixon (J. X. Wilson, S. J. Dixon, High-Affinity Sodium-Dependent Uptake of Ascorbic Acid by Rat Osteoblasts, J. Mem. Biol. 111 (1989) 83-91). Primary human chondrocytes were seeded at a density of 4.5×10^5 cells/well on a 6-well plate (or 2.25×10^5 cells/well on a 12-well plate for the kinetic experiments). Prior to the transport assay, cells were plated for 48 hours in DMEM/F12, containing 10% FCS but no AA. Cells were washed in transport buffer containing: 134 mM NaCl, 5.4 mM KCl, 1.8 mM CaCl2, 0.8 mM MgSO4, 10 mM D-glucose, 20 mM HEPES, pH 7.3 with NaOH. […] The standard AA transport assay conditions were 37° C./5% CO2 for 10 minutes. AA uptake was terminated by washing the cells four-times in ice-cold PBS. The cells were lysed with Puregene Cell Lysis Solution (Gentra Systems) and scintillation counting was performed in Uniscint BD (National Diagnostics).
In experiments with sodium free transport buffer, iso-osmotic concentrations of LiCl were substituted for NaCl. […]

[3] = tested on: primary human chondrocytes; experiment: Dehydroascorbate transport assay in isolated primary human chondrocytes; assay type: cell-based; conditions: for ability to compete with L-14C-DHA transport: 2 mM unlabeled competitor; for mode of inhibition of L-14C-DHA transport (Dixon plot): data not shown; for inhibition of DHA transport: 0.1 mM inhibitor, p<0.001; for increase in L-14C-DHA uptake versus 21% oxygen tension: 24 hours
Procedure: Dehydroascorbate Transport Assay in Isolated Primary Human Chondrocytes. DHA transport was measured using a modified version of the uptake assay published by Wilson and Dixon (Wilson J X, Dixon S J. High-Affinity Sodium-Dependent Uptake of Ascorbic Acid by Rat Osteoblasts. J. Mem. Biol. 1989; 111:83-91). Primary human chondrocytes were seeded at a density of 4.5×10^5 cells/well on a 6-well plate. Prior to the transport assay, cells were plated for 48 hours in DMEM/F12, containing 10% FCS but no AA or DHA. Cells were washed in transport buffer containing: 134 mM LiCl, 5.4 mM KCl, 1.8 mM CaCl2, 0.8 mM MgSO4, 20 mM HEPES, pH 7.3 with KOH. DHA uptake was assessed by incubating the chondrocytes in transport buffer containing 189 μM L-^14C-dehydroascorbate (L-^14C-DHA). […] The standard DHA transport assay conditions were 37° C./5% CO2/21% O2 for 10 min. DHA uptake was terminated by washing the cells four-times in ice-cold PBS. […] The total pmol of L-^14C-DHA transported was calculated using the total dpm of L-^14C-DHA transported and the specific activity of the radiolabel.
Matrix Biol. 2002; 21:175-184). Stock solutions of different unlabeled DHA forms were generated in the same manner as the L-^14C-DHA. […]

[4] = tested on: human articular cartilage explants; conditions: 50 µM
Description: Cartilage explants were isolated from human knee articular cartilage surgical waste tissues at the time of knee replacement surgery (n=5). Cartilage was harvested from non-lesioned areas, using a 2 mm diameter micro dissecting trephine (Biomedical Research Instruments, Rockville, Md.). A group of five cartilage plugs was pooled to constitute one sample. Each sample was paired with a corresponding sample from the same specimen and the same sites. The cartilage plugs were weighed and then transferred to a 24-well plate, containing 1 ml wash media (described in the chondrocyte isolation procedure). The cartilage plugs were incubated in 1 ml DMEM/F12 (Gibco, Grand Island, N.Y.) with 10% FCS (Gibco) and no AA for 48 hours at 37° C./5% CO2, prior to the procedures below.
The cartilage explants were washed with PBS and half of the samples were transferred to 1.5 ml centrifuge tubes with a drop of PBS. The tubes were frozen in liquid nitrogen for three minutes and thawed at 37° C. for five minutes. This freeze/thaw procedure was performed for a total of three cycles. The dead explants were transferred back to the 24-well plates.
Explant Ascorbic Acid Transport Assay. […] Samples were processed to isolate the cells from the matrix fraction (see Intracellular versus Extracellular AA) or counted for radioactivity by transferring the whole explants to glass scintillation vials and solubilizing the samples overnight at room temperature in 0.5 ml Solulene 350 (Perkin Elmer Life and Analytical Services, Boston, Mass.). Hionic Fluor scintillation fluid (5 ml, Perkin Elmer Life and Analytical Services) was added, and radioactivity was counted in the live and dead explants, using a scintillation counter.
Explant isolation, explant treatments, and the explant AA transport assay (through the PBS wash step) were performed, followed by the chondrocyte isolation procedure described above. After the cell fraction was isolated from the matrix, the cells were washed, then 15 μl of the cells were counted on a hemacytometer, in order to determine the total number of cells in the cell fraction. […]

[5] = 100 μM inhibitor, 10 minutes, p<0.001

transport of BP-AA versus AA alone ([1]; 10 mM BP-AA, one hour): 143 fold
amount gaining entry to chondrocytes in monolayer ([1]; 10 mM, one hour, 37° C.): 2281 nmol/mg protein
Molecule: O=C(CCC(=O)OCC(O)C1OC(=O)C(O)=C1O)Nc1ccc(NC(P(=O)(O)O)P(=O)(O)O)nc1 [BP-AA, 6-O-{N-[6-[(bisphosphonomethyl)amino]pyridin-3-yl]}succinyl-L-ascorbic acid]
inhibition at 10000 µM ([1]; Homo sapiens, Chondrocyte, 1 h, 10 mM BP-AA, one hour, no sodium, read-out: inhibition of BP-AA uptake in the absence of sodium): 50%

Molecule: O=C1O[C@H]([C@H](O)CO)C(O)=C1O [D-Asc, D-isoascorbic acid]
ability to compete with L-14C-Asc for transport ([2]; 10 minutes): unable to effectively compete
ability to compete with L-14C-DHA transport ([3]; 10 min): able to effectively compete
mode of inhibition of L-14C-DHA transport (Dixon plot) [3]: non-competitive inhibitors

Molecule: O=C1O[C@@H]([C@H](O)CO)C(=O)C1=O [D-DHA, D-dehydroascorbate]
ability to compete with L-14C-DHA transport ([3]; 10 min): able to effectively compete

increase in DHA transport versus 21% oxygen tension ([3]; human, 10 min, 189 µM, pH 7.3): 2.7 fold
increase of DHA transport versus 21% oxygen tension ([3]; human, 10 min, 189 µM, pH 7.3): 3.2 fold
increase of DHA transport versus 21% oxygen tension, mean ([3]; human, 10 min, 189 µM, pH 7.3): 3.5 fold
passive diffusion of DHA as share of transport under optimized conditions ([3]; human, 10 min, 189 µM, pH 7.3): 11%
Molecule: O=C1OC(C(O)CO)C(=O)C1=O [DHA, L-dehydroascorbate]
ability to compete with L-14C-Asc for transport ([2]; 10 minutes): unable to effectively compete
ability to compete with L-14C-DHA transport ([3]; 10 min): able to effectively compete

Molecule: O=C1O[C@H]([C@@H](O)CO)C(O)=C1O [L-Asc, L-ascorbic acid]
vMax for AA transport in chondrocytes ([2]; 0-500 μM L-14C-Asc, Michaelis-Menten): 148+/−35 pmol L-^14C-Asc/10^6 cells/10 minutes
Km ([2]; 0-500 μM L-14C-Asc, Michaelis-Menten, read-out: Km for AA transport in chondrocytes): 179 µM
concentration of unlabeled L-Asc at which the transporter is fully saturated ([2]; 200 μM L-14C-Asc, 10 minutes): approximately 1000 μM
suppression of L-14C-Asc transport by unlabeled competitor ([2]; 10 minutes, p<0.001): approximately 60%
ability to compete with L-14C-DHA transport ([3]; 10 min): able to effectively compete
mode of inhibition of L-14C-DHA transport (Dixon plot) [3]: non-competitive inhibitors
calculated intracellular concentration of total AA, deep zone cells [4]: 45 mM
calculated intracellular concentration of total AA, middle zone cells [4]: 51 mM
calculated intracellular concentration of total AA, superficial zone cells [4]: 67 mM

Molecule: O=C1O[C@H]([C@H](O)CO)C([O-])=C1O.[Na+] [Na D-Asc, Na D-isoascorbate]
ability to compete with L-14C-Asc for transport ([2]; 10 minutes): unable to effectively compete
ability to compete with L-14C-DHA transport ([3]; 10 min): able to effectively compete

Molecule: O=C1O[C@H]([C@@H](O)CO)C([O-])=C1O.[Na+] [Na L-Asc, Na L-ascorbate]
suppression of L-14C-Asc transport by unlabeled competitor ([2]; 10 minutes, p<0.001): 75%
ability to compete with L-14C-DHA transport ([3]; 10 min): able to effectively compete

Molecule: C=C1[C@@H](C)[C@H]2[C@H](Cc3ccccc3)NC(=O)[C@]23OC(=O)/C=C/[C@H](O)CCC[C@@H](C)C/C=C/[C@H]3[C@@H]1O [cytochalasin B]
inhibition of L-14C-Asc transport [2, 5]: 40%
inhibition of DHA transport ([3]; 10 min): 95%

Molecule: C[C@H]1C/C=C/[C@H]2[C@@H]3O[C@]3(C)[C@@H](C)[C@H]3[C@H](Cc4ccccc4)NC(=O)[C@]32OC(=O)O/C=C/[C@@](C)(O)C1=O [cytochalasin E]
inhibition of L-14C-Asc transport [2, 5]: 35%
inhibition of DHA transport ([3]; 10 min): 40%

Molecule: O=C1C(CC[S+]([O-])c2ccccc2)C(=O)N(c2ccccc2)N1c1ccccc1 (stereo not shown) [sulfinpyrazone]
inhibition at 100 µM ([2]; Homo sapiens, Chondrocyte, 10 min, 100 μM inhibitor, 10 minutes, p<0.001, read-out: inhibition of L-14C-Asc transport): ~65%
inhibition at 100 µM ([1]; Homo sapiens, Chondrocyte, 0.75 h, 100 μM sulfinpyrazone, 45 minutes in advance of 10 mM BP-AA): ~75%

Molecule: L-^14C-dehydroascorbate [L-^14C-DHA]
increase in L-14C-DHA uptake versus 21% oxygen tension ([3]; 2.5% oxygen, absence of glucose): 1.6 fold
increase in L-14C-DHA uptake versus 21% oxygen tension ([3]; 5% oxygen): no increase
14C-DHA Uptake (change versus 21% oxygen tension) ([3]; O2 tension 5%, 24 hrs): No change

Molecule: Na D-dehydroascorbate [Na D-DHA]
ability to compete with L-14C-DHA transport ([3]; 10 min): unable to compete

Molecule: Na L-dehydroascorbate [Na L-DHA]
ability to compete with L-14C-DHA transport ([3]; 10 min): able to effectively compete
